# Results taken from publication PMC6479349, “Derivatives of 3-Aminopyrazine-2-carboxamides: Synthesis, Antimicrobial Evaluation, and in Vitro Cytotoxicity” (Molecules, 2019).
# Columns and labels:
# [1] = tested on: Mycobacterium tuberculosis H37Rv; assay: Antimycobacterial microdilution broth MIC (Alamar Blue); assay type: cell-based; conditions: for MIC: Mycobacterium tuberculosis, H37RV
# [2] = tested on: Mycobacterium smegmatis DSM 43465; assay: Antimycobacterial microdilution broth panel MIC (resazurin); assay type: cell-based; conditions: Mycolicibacterium smegmatis
# [3] = tested on: Trichophyton interdigitale CCM 8377; assay: Antifungal microdilution broth MIC
# [4] = Lipophilicity by reverse phase HPLC (log k); conditions: RP-HPLC C18, MeOH 70% / H2O 30%, 30 °C
# Description: The mobile phase consisted of MeOH (HPLC grade, 70%) and H2O (HPLC-Milli-Q Grade, 30%). The flow rate was 1.0 mL/min, samples were injected in a volume of 20 µL, and the column temperature was 30 °C. Detection and monitoring wavelength were 210 nm and 270 nm, respectively. Retention times (Rt) were measured in minutes. The dead time of the system (Dt) was determined as the retention time of the KI methanolic solution. Capacity factors k for individual compounds were calculated according to the formula k = (Rt – Dt)/Dt. Capacity factor k was converted to log scale and (log k) and used as a measure of lipophilicity.
# [5] = In vitro cytotoxicity, CellTiter 96 Aqueous One; conditions: human
# [6] = M. tuberculosis H37Rv, value in parentheses
# [7] = pH 6.6, M. tuberculosis H37Rv, Middlebrook 7H9 pH 6.6
# [8] = M. tuberculosis H37Rv, Middlebrook 7H9 pH 6.6
Compound,"MIC [1, 6]","MIC [1, 7]",MIC ([2]; DSM43465),"MIC ([2]; DSM43465, value in parentheses)",antifungal activity against TI [3],log k [4],"MIC Mtb [1, 8]","MIC ([3]; Trichophyton interdigitale, CCM8377, 72 h, read-out: MIC72h TI)",IC50 at 24 h [5]
"Nc1nccnc1C(=O)NCc1ccccc1 [Compound 1, 3-Amino-N-benzylpyrazine-2-carboxamide]",> 438 µM,> 100 µg/mL,> 500 µg/mL,> 2190 µM,showed activity mainly against TI,0.056,–,–,–
"Cc1ccccc1CNC(=O)c1nccnc1N [Compound 2, 3-Amino-N-(2-methylbenzyl)pyrazine-2-carboxamide]",> 413 µM,> 100 µg/mL,> 500 µg/mL,> 2060 µM,–,0.278,–,–,–
"Cc1ccc(CNC(=O)c2nccnc2N)cc1 [Compound 3, 3-Amino-N-(4-methylbenzyl)pyrazine-2-carboxamide]",413 µM,50 to 100 µg/mL,> 500 µg/mL,> 2060 µM,showed activity mainly against TI,0.289,100 µg/mL,–,–
"COc1ccc(CNC(=O)c2nccnc2N)cc1 [Compound 4, 3-Amino-N-(4-methoxybenzyl)pyrazine-2-carboxamide]",387 µM,50 to 100 µg/mL,> 500 µg/mL,> 1940 µM,showed activity mainly against TI,0.026,100 µg/mL,–,–
"COc1ccc(CNC(=O)c2nccnc2N)c(OC)c1 [Compound 5, 3-Amino-N-(2,4-dimethoxybenzyl)pyrazine-2-carboxamide]",> 347 µM,> 100 µg/mL,> 500 µg/mL,> 1730 µM,–,0.188,–,–,–
"Nc1nccnc1C(=O)NCc1ccc(Cl)c(Cl)c1 [Compound 6, 3-Amino-N-(3,4-dichlorobenzyl)pyrazine-2-carboxamide]",> 336 µM,> 100 µg/mL,> 500 µg/mL,> 1680 µM,–,0.493,–,–,–
"Nc1nccnc1C(=O)NCc1cccc(C(F)(F)F)c1 [Compound 7, 3-Amino-N-(3-(trifluoromethyl)benzyl)pyrazine-2-carboxamide]",169 µM,50 to 100 µg/mL,250 µg/mL,844 µM,showed activity mainly against TI,0.282,50 µg/mL,–,–
"Nc1nccnc1C(=O)NCc1ccc(C(F)(F)F)cc1 [Compound 8, 3-Amino-N-(4-(trifluoromethyl)benzyl)pyrazine-2-carboxamide]",169 µM,50 to 100 µg/mL,> 500 µg/mL,> 1690 µM,–,0.308,50 µg/mL,–,–
"CCCCCNC(=O)c1nccnc1N [Compound 9, 3-Amino-N-pentylpyrazine-2-carboxamide]",> 480 µM,> 100 µg/mL,> 500 µg/mL,> 2400 µM,–,0.327,–,500 µM,–
"Cc1ccc(C)c(NC(=O)c2nccnc2N)c1 [Compound 15, 3-Amino-N-(2,5-dimethylphenyl)pyrazine-2-carboxamide]",> 413 µM,> 100 µg/mL,> 500 µg/mL,> 2060 µM,–,0.778,–,–,–
"CCc1ccc(NC(=O)c2nccnc2N)cc1 [Compound 16, 3-Amino-N-(4-ethylphenyl)pyrazine-2-carboxamide]",> 413 µM,> 100 µg/mL,> 500 µg/mL,> 2060 µM,–,0.623,–,–,> 250 µM
"Nc1nccnc1C(=O)Nc1ccc(F)cc1F [Compound 18, 3-Amino-N-(2,4-difluorophenyl)pyrazine-2-carboxamide]",> 400 µM,> 100 µg/mL,> 500 µg/mL,> 2000 µM,–,0.422,–,–,–
"Nc1nccnc1C(=O)Nc1ccc(Cl)c(Cl)c1 [Compound 19, 3-Amino-N-(3,4-dichlorophenyl)pyrazine-2-carboxamide]",177 µM,50 µg/mL,> 500 µg/mL,> 1770 µM,–,0.778,–,–,–
"NC(=O)c1cnccn1 [PZA, Pyrazinamide, reference compound]",–,100 µg/mL,> 100 µg/mL,–,–,–,–,–,–
